Test results from US20240025906A1 (NEURON23, INC., priority 2022, published 2024).

Columns and labels:
TYK2 JH2 = target: T1, TYK2 JH2 (Homo sapiens, UniProt P29597); assay: TYK2 JH2 binding assay (KINOMEscan KdELECT competitive binding); conditions: TYK2 JH2 domain, KINOMEscan KdELECT (Assay A); read-out: Biochemical TYK2_DiscoverX_JH2_BND_Kd
T1 construct: purchased DiscoverX (KINOMEscan KdELECT service); host or cells: E. coli BL21-derived (T7 phage display) or HEK-293
In short: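 Test compounds were titrated in 11 three-fold steps against JH2 fragment captured on ligand-loaded magnetic beads, with 1 h incubation at room temperature and DMSO at 0.9%. Eluted kinase was quantified by qPCR, and Kd was fitted from the dose series.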

[1] = test system: JAK1/TYK2 pSTAT5 (Tyr694/699) in THP-1 cell line; assay: IFNa-stimulated JAK1/TYK2 pSTAT5 (Tyr694/699) inhibition cellular assay, AlphaLISA; type: cell-based; conditions: Homo sapiens; THP-1 cells, IFNa-stimulated pSTAT5 (Tyr694/699), AlphaLISA (Assay B); read-out: Cellular_THP1_IFNa-pSTATS_TYK2
In short: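 Compound dilutions were dispensed first, and HBSS-suspended THP-1 cells were added on top (final top concentration 10000 nM, 6-fold series). After 1 h at 37 °C, IFNa (100 ng/mL as added) was applied for 30 min. Cells were then lysed and pSTAT5 was quantified by AlphaLISA.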

Psoriasis patients = conditions: humans; TYK2 inhibitor; background statement citing Armstrong et al, Ann of Rheu Dis, 2020; cited from earlier work

T1 sequence (P29597 589-875 limits assumed): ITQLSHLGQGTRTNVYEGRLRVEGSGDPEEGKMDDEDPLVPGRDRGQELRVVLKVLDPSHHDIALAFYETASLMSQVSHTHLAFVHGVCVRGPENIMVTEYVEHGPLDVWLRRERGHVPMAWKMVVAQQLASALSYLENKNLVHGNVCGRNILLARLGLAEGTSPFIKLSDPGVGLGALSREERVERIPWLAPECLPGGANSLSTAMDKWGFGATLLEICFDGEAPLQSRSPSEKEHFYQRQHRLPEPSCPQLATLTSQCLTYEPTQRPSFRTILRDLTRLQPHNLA

Compound: CNc1ncc(C#Cc2ccc(OC)cn2)c2cc(NC(=O)N3CC(OC)C3)ncc12 [Example 1083, 3-methoxy-N-[5-[2-(5-methoxy-2-pyridyl)ethynyl]-8-(methylamino)-2,7-naphthyridin-3-yl]azetidine-1-carboxamide]
- Kd (TYK2 JH2): ≤ 100 nM
- IC50 [1]: > 500 nM

Compound: CNc1ncc(C#Cc2ccc(OC)cn2)c2cc(NC(=O)C3COC3)ncc12 [Example 1084, N-[5-[2-(5-methoxy-2-pyridyl)ethynyl]-8-(methylamino)-2,7-naphthyridin-3-yl]oxetane-3-carboxamide]
- Kd (TYK2 JH2): ≤ 100 nM
- IC50 [1]: > 500 nM

Compound: CNc1ncc(-c2cn3cc(N4CCO[C@@H](C)C4)ccc3n2)c2cc(NC(=O)C3(F)CC3)ncc12 [Example 1085, 1-fluoro-N-[8-(methylamino)-5-[6-[(2S)-2-methylmorpholin-4-yl]imidazo[1,2-a]pyridin-2-yl]-2,7-naphthyridin-3-yl]cyclopropanecarboxamide]
- Kd (TYK2 JH2): ≤ 100 nM
- IC50 [1]: ≤ 500 nM

Compound: CNc1ncc(-c2nc3cc(N(C)C(C)=O)ccc3o2)c2cc(Nc3cccc(OC)n3)ncc12 [Example 1086, N-[2-[6-[(6-methoxy-2-pyridyl)amino]-1-(methylamino)-2,7-naphthyridin-4-yl]-1,3-benzoxazol-5-yl]-N-methyl-acetamide]
- Kd (TYK2 JH2): ≤ 100 nM
- IC50 [1]: ≤ 500 nM

Compound: CNc1ncc(C#Cc2ccc(OC)cn2)c2cc(Nc3cccn(-c4ccccn4)c3=O)ncc12 [Example 1087, 3-[[5-[2-(5-methoxy-2-pyridyl)ethynyl]-8-(methylamino)-2,7-naphthyridin-3-yl]amino]-1-(2-pyridyl)pyridin-2-one]
- Kd (TYK2 JH2): ≤ 100 nM
- IC50 [1]: > 500 nM

Compound: CNc1ncc(-c2nc3ccc(N4CCOCC4)cn3n2)c2cc(Nc3cc(C(C)(C)O)ccn3)ncc12 [Example 1088, 2-[2-[[8-(methylamino)-5-(6-morpholino-[1,2,4]triazolo[1,5-a]pyridin-2-yl)-2,7-naphthyridin-3-yl]amino]-4-pyridyl]propan-2-ol]
- Kd (TYK2 JH2): ≤ 100 nM
- IC50 [1]: ≤ 500 nM

Compound: CNc1ncc(-c2nc3ccc(N4CCOCC4)cn3n2)c2cc(Nc3nccc(C(C)(C)O)c3F)ncc12 [Example 1089, 2-[3-fluoro-2-[[8-(methylamino)-5-(6-morpholino-[1,2,4]triazolo[1,5-a]pyridin-2-yl)-2,7-naphthyridin-3-yl]amino]-4-pyridyl]propan-2-ol]
- Kd (TYK2 JH2): ≤ 100 nM
- IC50 [1]: ≤ 500 nM

Compound: CNc1ncc(-c2nc3ccc(N4CCOCC4)cn3n2)c2cc(Nc3ccc(C(F)(F)F)cn3)ncc12 [Example 1090, N1-methyl-4-(6-morpholino-[1,2,4]triazolo[1,5-a]pyridin-2-yl)-N6-[5-(trifluoromethyl)-2-pyridyl]-2,7-naphthyridine-1,6-diamine]
- Kd (TYK2 JH2): ≤ 100 nM
- IC50 [1]: > 500 nM

Compound: CNc1ncc(-c2nc3cc(NC(=O)C4CC4)ccc3o2)c2cc(NC(=O)C3CC3)ncc12 [Example 1091, N-(2-(6-(cyclopropanecarboxamido)-1-(methylamino)-2,7-naphthyridin-4-yl)benzo[d]oxazol-5-yl)cyclopropanecarboxamide]
- Kd (TYK2 JH2): ≤ 100 nM
- IC50 [1]: ≤ 500 nM

Compound: CCC(=O)Nc1ccc2oc(-c3cnc(NC)c4cnc(NC(=O)C5CC5)cc34)nc2c1 [Example 1092, N-(8-(methylamino)-5-(5-propionamidobenzo[d]oxazol-2-yl)-2,7-naphthyridin-3-yl)cyclopropanecarboxamide]
- Kd (TYK2 JH2): ≤ 100 nM
- IC50 [1]: ≤ 500 nM

Compound: CNc1ncc(-c2nc3cc(NC(=O)CC4CC4)ccc3o2)c2cc(NC(=O)C3CC3)ncc12 [Example 1093, N-(5-(5-(2-cyclopropylacetamido)benzo[d]oxazol-2-yl)-8-(methylamino)-2,7-naphthyridin-3-yl)cyclopropanecarboxamide]
- Kd (TYK2 JH2): ≤ 100 nM
- IC50 [1]: ≤ 500 nM

Compound: CNc1ncc(-c2nc3ccc(N4CCOCC4)cc3s2)c2cc(NC(=O)C3CC3)ncc12 [Example 1094, N-(8-(methylamino)-5-(6-morpholinobenzo[d]thiazol-2-yl)-2,7-naphthyridin-3-yl)cyclopropanecarboxamide]
- Kd (TYK2 JH2): ≤ 100 nM
- IC50 [1]: ≤ 500 nM

Compound: [2H]C([2H])(C)Nc1ncc(-c2nc3ccc(N4CCOCC4)cn3n2)c2cc(NC(=O)[C@H]3C[C@H]3C)ncc12 [Example 1095, (1S,2R)—N-(8-((ethyl-1,1-d2)amino)-5-(6-morpholino-[1,2,4]triazolo[1,5-a]pyridine-2-yl)-2,7-naphthyridin-3-yl)-2-methylcyclopropane-1-carboxamide]
- Kd (TYK2 JH2): ≤ 100 nM
- IC50 [1]: ≤ 500 nM

Compound: [2H]C([2H])(C)Nc1ncc(-c2nc3ccc(N4CCOCC4)cn3n2)c2cc(NC(=O)C3CC3)ncc12 [Example 1096, N-(8-((ethyl-1,1-d2)amino)-5-(6-morpholino-[1,2,4]triazolo[1,5-a]pyridin-2-yl)-2,7-naphthyridin-3-yl)cyclopropanecarboxamide]
- Kd (TYK2 JH2): ≤ 100 nM
- IC50 [1]: ≤ 500 nM

Compound: CNc1ncc(-c2nc3cc(OC)ccc3o2)c2cc(NC(=O)NC3CC3)ncc12 [Example 1097, 1-cyclopropyl-3-(5-(5-methoxybenzo[d]oxazol-2-yl)-8-(methylamino)-2,7-naphthyridin-3-yl)urea]
- Kd (TYK2 JH2): ≤ 100 nM
- IC50 [1]: ≤ 500 nM

Compound: CNc1ncc(-c2nc3cc(N4CCOCC4)ccc3o2)c2cc(Nc3ccc(C(C)(C)O)cn3)ncc12 [Example 1098]
- Kd (TYK2 JH2): ≤ 100 nM
- IC50 [1]: ≤ 500 nM

Compound: CNc1ncc(-c2nc3cc(C(=O)NC4CC4)ccc3o2)c2cc(NC(=O)C3CC3)ncc12 [Example 1099, 2-(6-(cyclopropanecarboxamido)-1-(methylamino)-2,7-naphthyridin-4-yl)-N-cyclopropylbenzo[d]oxazole-5-carboxamide]
- Kd (TYK2 JH2): ≤ 100 nM
- IC50 [1]: ≤ 500 nM

Compound: CCNC(=O)c1ccc2oc(-c3cnc(NC)c4cnc(NC(=O)C5CC5)cc34)nc2c1 [Example 1100, 2-(6-(cyclopropanecarboxamido)-1-(methylamino)-2,7-naphthyridin-4-yl)-N-ethylbenzo[d]oxazole-5-carboxamide]
- Kd (TYK2 JH2): ≤ 100 nM
- IC50 [1]: ≤ 500 nM

Compound: CNc1ncc(-c2nc3cc(C(=O)NCC4CC4)ccc3o2)c2cc(NC(=O)C3CC3)ncc12 [Example 1101, 2-(6-(cyclopropanecarboxamido)-1-(methylamino)-2,7-naphthyridin-4-yl)-N-(cyclopropylmethyl)benzo[d]oxazole-5-carboxamide]
- Kd (TYK2 JH2): ≤ 100 nM
- IC50 [1]: ≤ 500 nM

Compound: [2H]C([2H])(C)Nc1ncc(-c2nc3cc(OC)ccc3o2)c2cc(NC(=O)C3CC3)ncc12 [Example 1102, N-(8-((ethyl-1,l-rig)amino)-5-(5-methoxybenzo[d]oxazol-2-yl)-2,7-naphthyridin-3-yl)cyclopropanecarboxamide]
- Kd (TYK2 JH2): ≤ 100 nM
- IC50 [1]: ≤ 500 nM

Compound: CNc1ncc(-c2cc3ccncc3o2)c2cc(Nc3cccc(OCCCCO)n3)ncc12 [Example 1103, 4-((6-((5-(furo[2,3-c]pyridin-2-yl)-8-(methylamino)-2,7-naphthyridin-3-yl)amino)pyridin-2-yl)oxy)butan-1-ol]
- Kd (TYK2 JH2): ≤ 100 nM
- IC50 [1]: ≤ 500 nM

Compound: CNc1ncc(C#Cc2ccc(-n3ccccc3=O)cc2)c2cc(NC(=O)C3(F)CC3)ncc12 [Example 1138, 1-fluoro-N-(8-(methylamino)-5-((4-(2-oxopyridin-1(2H)-yl)Phenyl)ethynyl)-2,7-naphthyridin-3-yl)cyclopropanecarboxamide]
- Kd (TYK2 JH2): ≤ 100 nM
- IC50 [1]: ≤ 500 nM

Compound: CNc1ncc(C#Cc2ccc(-n3c(=O)ccn3C)cc2)c2cc(NC(=O)[C@H]3C[C@H]3C)ncc12 [Example 1142, (1S,2R)-2-methyl-N-[8-(methylamino)-5-[2-[4-(2-methyl-5-oxo-pyrazol-1-yl)phenyl]ethynyl]-2,7-naphthyridin-3-yl]cyclopropanecarboxamide]
- Kd (TYK2 JH2): ≤ 100 nM
- IC50 [1]: ≤ 500 nM

Compound: deucravacitinib
- efficacy in Psoriasis patients (Psoriasis patients): efficacy
